pIC50: −log10 of the molar value.
How the values were obtained:
[1] = DPPH radical scavenging assay; conditions: means ± SD (n = 3)
Protocol: (§1) The antioxidant activity of T. polium L. hydroalcoholic extract was achieved using several analytical tests distinguished by their mechanism of reaction 2-diphenyl-1-picrylhydrazyl (DPPH), β-carotene and galvinoxyl radical (GOR). The reaction was initiated by mixing 0.5 mL of hydroalcoholic extract with 1 mL of DPPH (0.2 mM), β-carotene (0.5 mM) and GOR (0.1 mM) using the protocols described in references. The mixtures were left in the dark at room temperature for approximately 30 min; after that, the absorbance was measured at λmax: […], 490 and 428 nm for the mentioned tests, respectively, against a blank using a UV-vis spectrophotometer apparatus (Shimadzu UV-2450, Japan). The inhibition percentage was calculated as follows: I% = ((A0 − A1)/A0) × 100, where A0 is the absorbance of DPPH, β-carotene and GOR solutions without extracts, while A1 were the absorbance of the sample. The activity results for all tests were expressed as IC50 (half maximal inhibitory concentration) values, which have been calculated (using Microsoft Excel 2016) from an antiradical linear graph formed by the X axis, which represented extract concentration, and the Y axis, which represented their relative inhibition percentage. In addition, the antioxidant activity results were compared with three standards, BHA, BHT and vitamin, as represented in Table 1.

β-carotene assay = conditions: means ± SD (n = 3)
Protocol: as §1

rat renal medulla COX = tested on: rat renal medulla COX; design: method as in PMID 33802084; conditions: cited from earlier work
[2] = tested on: carrageenan-induced paw edema; test: Carrageenan-induced hind paw edema; conditions: mice, gavage, extract 10% 0.5 mL or diclofenac 10 mg/kg; for % Oedema Reduction: versus control

## Cc1cc(C(C)(C)C)c(O)c(C(C)(C)C)c1 [BHT, 2,6-ditert-butyl-4-methylphenol]
[1]
  DPPH IC50: 12.99 ± 0.41 µg/mL
β-carotene assay
  β Carotene IC50: 0.91 ± 0.01 µg/mL

## O=c1cc(-c2ccc(O)c(O)c2)oc2cc(O)cc(O)c12 [Luteolin (7), luteolin]
Rat renal medulla COX
  pIC50: 3.89 to 4.00

## Cc1c(C)c2c(c(C)c1O)CC[C@@](C)(CCC[C@H](C)CCC[C@H](C)CCCC(C)C)O2 [Vitamin E, α-Tocopherol]
[1]
  DPPH IC50: 15.81 ± 0.54 µg/mL

## O=C(O)Cc1ccccc1Nc1c(Cl)cccc1Cl [Diclofenac sodium]
[2]; 4 h after carrageenan
  % Oedema: 20.42%
  % Oedema Reduction: 52.97%
[2]; carrageenan-injected paw, 4 h
  Average Paw Weight (g) Left: 0.171 ± 0.009 g
[2]; uninjected paw, 4 h
  Average Paw Weight (g) Right: 0.142 ± 0.001 g
[2]; 4 h after carrageenan, listed as diclofenac sodium
  % Oedema Reduction: 52.97%

## COc1ccc(O)c(C(C)(C)C)c1 [BHA, butylated hydroxyanisole]
[1]
  DPPH IC50: 6.14 ± 0.41 µg/mL
β-carotene assay
  β Carotene IC50: 1.05 ± 0.03 µg/mL
